In patent publication US4365989A, “2-Thiocyanomethylthio-4,4-dialkyl-5-substituted-thiazoline fungicides” (Chevron Research Company, priority 1982, dated 1982):

Columns and labels:
Pythium Ultimum = experiment: Mycelial inhibition, Pythium; type: cell-based; conditions: Globisporangium ultimum, 24 hours, relative to standard DIFOLATAN
Method: A number of the compounds of the present invention were evaluated for in-vitro fungicidal effectiveness by means of a mycelial inhibition test. This test is designed to measure the fungitoxic activity of fungicidal chemicals in terms of their degree of inhibition of mycelium growth. Each compound to be tested was dissolved in acetone to 500 ppm concentration. Paper strips were infused with the particular mycelium growth by covering the paper with a potato dextrose broth culture of mycelial suspension. The papers were then placed on potato dextrose agar plates and sprayed by means of a microsprayer with the fungicidal solution. The treated paper strips were incubated at 25° C. and the data is taken after 24 hours. Fungicidal activities are measured by a zone of inhibited mycelial growth from the center of the paper strip. The effectiveness of the compounds tested for fungicidal activity is reported in Table IIa for those compounds which were effective in inhibiting mycelial growth. The activity is reported in terms of [formula]

[1] = test system: Watergrass (Ethinochloa crusgalli); experiment: Post-emergent herbicidal test, Watergrass; type: in vivo; conditions: 504 h; post-emergence; 33 micrograms/cm^2; 3 weeks
[2] = test system: Crabgrass (Digitaria sanguinalis); experiment: Post-emergent herbicidal test, Crabgrass; type: in vivo; conditions: 504 h, post-emergence, 33 micrograms/cm^2, 3 weeks
[3] = test system: Alternaria solani conidia; experiment: Tomato Early Blight control; type: in vivo; conditions: 250 ppm; tomato Bonny Best seedlings
Method: Compounds of the invention were tested for the control of the tomato Early Blight organism, Alternaria solani conidia. Tomato (variety Bonny Best) seedlings of 6 to 7 weeks old were used. The tomato plants were sprayed with a 250 ppm solution of the test compound in an acetone-and-water solution containing a small amount of a nonionic emulsifier. The sprayed plants were inoculated one day later with the organism, placed in the environmental chamber and incubated at 66° to 68° F. and 100% relative humidity for 24 hours. Following the incubation, the plants were maintained in a greenhouse for about 12 days. Percent diseases control was based on the percent disease development on untreated check plants.

[4] = test system: Mustard (Brassica arvensis); experiment: Pre-emergent herbicidal test, Mustard; type: in vivo; conditions: 504 h, pre-emergence, 33 micrograms/cm^2, 3 weeks
Method: An acetone solution of the test compound was prepared by mixing 750 mg of the compound, 220 mg of a nonionic surfactant and 25 ml of acetone. This solution was added to approximately 125 ml of water containing 156 mg of surfactant.
Seeds of the test vegetation were planted in a pot of […] and the test solution was sprayed uniformly onto the soil surface at a dose of 33 micrograms/cm^2. The pot was watered and placed in a greenhouse. […] At the end of this period, the herbicidal effectiveness of the compound was rated based on the physiological observations. A 0-to-100 scale was used, 0 representing no phytotoxicity, 100 representing complete kill.

Septoria apii = type: in vivo; conditions: 250 ppm; celery (Utah) plants
Piricularia oryzae = type: in vivo; conditions: 625 ppm; rice seedlings Calrose M-9

| SMILES | inhibition at 500 ppm (Pythium Ultimum) [%] | pest or weed control at 33 µg/cm2 [1] [%] | pest or weed control at 33 µg/cm2 [2] [%] | % Control Tom. E. Bl. [3] [%] | pest or weed control at 33 µg/cm2 [4] [%] | % Control Cel. L. Bl. (Septoria apii) [%] | % Control Rice Blast (Piricularia oryzae) [%] |
| --- | --- | --- | --- | --- | --- | --- | --- |
| C=C1SC(SCSC#N)=NC1(C)C [Compound 7, 2-Thiocyanomethylthio-4,4-dimethyl-5-methylenethiazoline] | 55 | 22 | 35 | 71 | 0 | – | – |
| CC1(C)N=C(SCSC#N)SC1=CSc1ccc(Cl)cc1 [Compound 1, 2-thiocyanomethylthio-4,4-dimethyl-5-(4-chlorophenylthio)methylenethiazoline] | – | 0 | 0 | 47 | 0 | 70 | – |
| CCC1(CC)N=C(SCSC#N)SC1=CBr [Compound 5, 2-thiocyanomethylthio-4,4-diethyl-5-bromo-methylenethiazoline] | 0 | 58 | 30 | 0 | 0 | 96 | 90 |
| C=C1SC(SCSC#N)=NC1(CC)CC [Compound 6, 2-thiocyanomethylthio-4,4-diethyl-5-methylenethiazoline] | 31 | 35 | 45 | 0 | 58 | 0 | – |
| C=C1SC(SCSC#N)=NC12CCCCC2 [Compound 8] | 0 | 38 | 20 | 0 | 0 | – | – |
| CC1(C)N=C(SCSC#N)SC1=C(Cl)Cl [Compound 2, 2-thiocyanomethylthio-4,4-dimethyl-5-dichloromethylenethiazoline] | – | 45 | 25 | 67 | 0 | 35 | – |
